Legend:
[1] = test system: thyroparathyroidectomised (TPTx) rats; experiment: Pharmacodynamic actions in thyroparathyroidectomised (TPTx) rats, 28-days daily subcutaneous injections; type: in vivo, SD rats
Experimental: Quantitative measurements of serum calcium (sCa), urinary calcium and serum phosporous (sP) were performed on a Roche-Hitachi P800 modular biochemistry instrument.
Rats subjected to thyroparathyroidectomy (TPTx) by blunt dissection are unable to produce parathyroid hormone, PTH, the major regulator of calcium homeostasis. […] Additionally, one group of sham operated rats (n=9) representing normophysiological background control were also given vehicle. Serum calcium (sCa) and phosporous (sP) levels in the animals were measured pre- and post-dose on days 1, 6, 12 and 27. Moreover, bone turnover markers (P1NP and CTx) were measured and bone quality assessed by ex vivo pQCT.

[2] = cited from earlier work

PTH(1-84): Natpara®, PTH(1-84), approved by the FDA for hypoparathyroidism; the current standard of care (SEQ ID NO:1)
trabecular BMD compared to both control groups ([1]; 28 days treatment): significant increase | effect on serum phosphorous (sP) ([1]; TPTx rats, daily sc): minimal decrease | effect on serum calcium (sCa) ([1]; TPTx rats, daily sc, 18 at […], PTH(1-84) at 7.3 nmol/kg/d): did not lead to increase in sCa | serum calcium (sCa) at day 12 ([1]; TPTx rats, 18 at […], PTH(1-84) at 7.3 nmol/kg/d, sc): 8.1 mg/dL | trabecular and cortical BMD in vertebrae ([1]; following 28 days of treatment): anabolic effect | PTH Cmax ([2]; currently approved doses): 300 pg/mL | control of urinary calcium excretion ([2]; daily injections, FDA review): failed to provide adequate control | incidence of hypercalcemia and hypocalcemia compared to placebo ([2]; in vivo): did not improve
